Test results reported in BigSolDB 2.1.

C=CC(=O)N1CCC[C@@H](n2nc(-c3ccc(Oc4ccccc4)cc3)c3c(N)ncnc32)C1
solubility (mole fraction)
Conditions | 298.15 K | 303.15 K | 308.15 K | 313.15 K | 323.15 K
in transcutol | 0.0267 | 0.0288 | 0.0318 | 0.0341 | 0.0392
in water | 1.43e-07 | 2.21e-07 | 3.11e-07 | 4.13e-07 | 7.69e-07
